The structures appear in SMILES notation. pKd: −log10 of the molar value.

The target in one experiment is T1, FLT3 R834Q (Homo sapiens, UniProt P36888, R834Q).
T1 sequence (P36888 27-993 R834Q): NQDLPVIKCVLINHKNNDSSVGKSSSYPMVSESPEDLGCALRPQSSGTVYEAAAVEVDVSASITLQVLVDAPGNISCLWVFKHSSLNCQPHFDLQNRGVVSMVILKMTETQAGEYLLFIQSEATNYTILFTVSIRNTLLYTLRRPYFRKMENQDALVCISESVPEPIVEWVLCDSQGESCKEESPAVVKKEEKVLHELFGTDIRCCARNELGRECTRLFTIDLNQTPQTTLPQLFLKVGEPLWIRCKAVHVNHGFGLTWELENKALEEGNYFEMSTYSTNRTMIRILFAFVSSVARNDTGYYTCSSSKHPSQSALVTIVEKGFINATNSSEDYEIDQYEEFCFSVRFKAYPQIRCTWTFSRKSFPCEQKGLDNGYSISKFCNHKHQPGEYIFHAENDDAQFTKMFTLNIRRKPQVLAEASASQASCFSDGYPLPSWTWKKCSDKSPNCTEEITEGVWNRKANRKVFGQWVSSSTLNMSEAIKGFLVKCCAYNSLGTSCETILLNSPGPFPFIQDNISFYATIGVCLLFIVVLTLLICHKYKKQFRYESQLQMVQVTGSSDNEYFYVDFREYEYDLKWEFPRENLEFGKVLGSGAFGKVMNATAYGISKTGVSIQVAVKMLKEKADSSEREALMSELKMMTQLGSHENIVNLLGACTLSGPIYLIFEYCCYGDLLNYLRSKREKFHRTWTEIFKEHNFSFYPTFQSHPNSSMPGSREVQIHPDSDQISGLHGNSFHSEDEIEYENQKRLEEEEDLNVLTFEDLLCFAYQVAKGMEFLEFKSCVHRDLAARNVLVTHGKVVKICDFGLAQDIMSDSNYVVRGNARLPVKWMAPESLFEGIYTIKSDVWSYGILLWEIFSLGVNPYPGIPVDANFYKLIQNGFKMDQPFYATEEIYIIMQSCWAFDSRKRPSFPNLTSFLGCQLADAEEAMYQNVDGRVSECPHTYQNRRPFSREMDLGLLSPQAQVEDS
As to the kind of experiment: DiscoverX KINOMEscan active site-directed competition binding, FLT3 R834Q. The following applies: Table 13; no ATP.
Description: (§1) Kinase binding data were obtained for various exemplary compounds prepared according to Examples 1-8 using the DiscoverX KINOMEscan® active site-directed competition binding site-directed assay protocol described below. […] As a result, the data report thermodynamic interaction affinities (Kd values), rather than IC50 values that are dependent on ATP concentrations. The assay uses a DNA-tagged version of the protein kinase, and an immobilized ligand bound to a solid support. Compounds that directly or indirectly prevent kinase binding to the immobilized ligand reduce the amount of kinase captured on the solid support, which is detected using an ultra-sensitive qPCR method. Affinity constants reported from the assay have been reported to be independent of the immobilized ligand used that is coupled to the solid support (See supplemental information in Fabian, M. A. et. al., (2005) Nat. Biotechnol. 23, 329-336; Wodicka, L. M. et. al., (2010) Chem. Biol. 17, 1241-1249.)
Kinase-tagged T7 phage strains were prepared in an E. coli host derived from the BL21 strain. E. coli were grown to log-phase and infected with T7 phage and incubated with shaking at 32 °C until lysis. The lysates were centrifuged and filtered to remove cell debris. The remaining kinases were produced in HEK-293 cells and subsequently tagged with DNA for qPCR detection. Streptavidin-coated magnetic beads were treated with biotinylated small molecule ligands for 30 minutes at room temperature to generate affinity resins for kinase assays. The liganded beads were blocked with excess biotin and washed with blocking buffer (SeaBlock (Pierce), 1% BSA, 0.05% Tween 20, 1 mM DTT) to remove unbound ligand and to reduce non-specific binding. […] Test compounds were prepared as 111x stocks in 100% DMSO. Kds were determined using an 11-point 3-fold compound dilution series with three DMSO control points. All compounds for Kd measurements are distributed by acoustic transfer (non-contact dispensing) in 100% DMSO. The compounds were then diluted directly into the assays such that the final concentration of DMSO was 0.9%. All reactions were performed in polypropylene 384-well plates. Each was a final volume of 0.02 mL. The assay plates were incubated at room temperature with shaking for 1 hour and the affinity beads were washed with wash buffer (1×PBS, 0.05% Tween 20). The beads were then re-suspended in elution buffer (1×PBS, 0.05% Tween 20, 0.5 μM nonbiotinylated affinity ligand) and incubated at room temperature with shaking for 30 minutes. The kinase concentration in the eluates was measured by qPCR. Binding constants (Kds) were calculated with a standard dose-response curve using the Hill equation. The Hill Slope was set to −1. Curves were fitted using a non-linear least square fit with the Levenberg-Marquardt algorithm.
as §1, with “9-12” for “1-8”
Kinase-tagged T7 phage strains were prepared in an E. coli host derived from the BL21 strain. […]
The term pKd denotes the Kd on a negative log10 scale, so that one unit is a factor of ten. Low readings indicate a high Kd, high ones a low Kd. In the case of `COc1cn2ncc(-c3nc(N[C@H]4CNCC[C@@H]4F)c(C#N)cc3F)c2nc1C1CC1` [Compound 7, 6-(5-cyclopropyl-6-methoxypyrazolo[1,5-a]pyrimidin-3-yl)-5-fluoro-2-(((3S,4S)-4-fluoropiperidin-3-yl)amino)nicotinonitrile], the pKd is > 9.77.

For `COc1cn2ncc(-c3nc(N[C@H]4CNCC[C@@H]4F)c(C#N)cc3F)c2nc1C(C)(C)O` [Compound 10, 5-fluoro-2-(((3S,4S)-4-fluoropiperidin-3-yl)amino)-6-(5-(2-hydroxypropan-2-yl)-6-methoxypyrazolo[1,5-a]pyrimidin-3-yl)nicotinonitrile], the pKd is 8.66.

The molecule `COc1cn2ncc(-c3nc(N[C@H]4CNCC[C@@H]4F)c(F)cc3F)c2nc1C(C)(C)O` [Compound 13, 2-(3-(3,5-difluoro-6-(((3S,4S)-4-fluoropiperidin-3-yl)amino)pyridin-2-yl)-6-methoxypyrazolo[1,5-a]pyrimidin-5-yl)propan-2-ol] gave a negative-log Kd (pKd) of 8.48.

Still in this experiment, the particulars now being: Table 19; no ATP.
With `COc1cn2ncc(-c3nc(N[C@H]4CNCC[C@@H]4F)ncc3F)c2nc1C(C)(C)O` [Compound 6a, 2-(3-(5-fluoro-2-(((3S,4S)-4-fluoropiperidin-3-yl)amino)pyrimidin-4-yl)-6-methoxypyrazolo[1,5-a]pyrimidin-5-yl)propan-2-ol], the pKd was 8.42.

In turn, `COc1cn2ncc(-c3cncc(N[C@H]4CNCC[C@@H]4F)n3)c2nc1C1CC1` [Compound 12a, 6-(5-cyclopropyl-6-methoxypyrazolo[1,5-a]pyrimidin-3-yl)-N-((3S,4S)-4-fluoropiperidin-3-yl)pyrazin-2-amine] had a pKd of 9.46.

For `COc1cn2ncc(-c3nc(N[C@@H]4CCCNC4)ncc3F)c2nc1C1CC1` [Compound 14a, (R)-4-(5-cyclopropyl-6-methoxypyrazolo[1,5-a]pyrimidin-3-yl)-5-fluoro-N-(piperidin-3-yl)pyrimidin-2-amine], the pKd is > 9.77.

In the case of `COc1cn2ncc(-c3nc(N[C@H]4CNCC[C@@H]4F)ncc3F)c2nc1C1CC1` [Compound 15a, 4-(5-cyclopropyl-6-methoxypyrazolo[1,5-a]pyrimidin-3-yl)-5-fluoro-N-((3S,4S)-4-fluoropiperidin-3-yl)pyrimidin-2-amine], the pKd is > 9.77.

Molecule `COc1cn2ncc(-c3ccnc(N[C@H]4CNCC[C@@H]4F)n3)c2nc1C1CC1` [Compound 7a, 4-(5-cyclopropyl-6-methoxypyrazolo[1,5-a]pyrimidin-3-yl)-N-((3S,4S)-4-fluoropiperidin-3-yl)pyrimidin-2-amine] showed a pKd of 9.37.
